Assay in all cases: inhibition of tumour cell growth, NCI panel, 48 h
In test [1] the test system is KM-20L2.
In test [2] the test system is XF498.
Test [3] relates to SNB-78.
Test [4] has as its system DMS-114.
For test [5], the system named is M19-MEL.
The test system of test [6] is DLD-1.
Test [7] deals with DMS-273.
Test [8] relates to HOP-18.
In test [9] the test system is RXF 631.

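All cell lines were grown in 96-well plates and treated with compound for 48 hours. Here, GI50 denotes the concentration required for 50% inhibition of growth.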 The source made the active and inactive calls. Rule as the data show it: active = GI50 up to about 1.1 µM and inactive = higher. A value given as a limit tells only on which side of the number the result lay.

Here are results for 26 compounds from ChEMBL document CHEMBL1201862, “PubChem BioAssay data set” (2004).

For `COc1ccc(/C=C2\Cc3ccccc3C2=O)cc1OC`, the GI50 in test [1] was > 100 µM (inactive); in test [2] it was > 100 µM (inactive); in test [3], > 100 µM (inactive); in test [4], 48.6 µM (inactive); in test [5], > 100 µM (inactive); in test [6], > 100 µM (inactive).

`COc1ccc(-c2cc(O)c3cc4c(cc3n2)OCO4)cc1`: the GI50 in [1], in test [2], in test [4], in [5], in test [6] and in [7] was > 100 µM (inactive) throughout.

For the compound `CCOC(=O)c1c(C)c(C)n2c1NC(=O)C2`, the GI50 is > 100 µM (inactive) in test [1]; 0.073 µM (active) in [2]; > 100 µM (inactive) in test [4]; > 100 µM (inactive) in [5]; > 100 µM (inactive) in test [8]; > 100 µM (inactive) in test [6]. For the same compound, the GI50 in test [9] and in [7] was > 100 µM (inactive) each time.

Regarding `NC(=O)COc1ccccc1`, the GI50 in test [1], in [2], in test [3], in [4], in [5] and in test [6] was > 100 µM (inactive) each time. Besides, the GI50 in test [9] and in test [7] was > 100 µM (inactive) each time.

Regarding `COC(=O)C(Cc1nc2ccccc2nc1O)/C(=N\NC(C)(C)C)C(=O)Nc1c(C)cc(Br)cc1C` (centres undefined), the GI50 was 22.6 µM (inactive) in test [3], 24.7 µM (inactive) in test [4], 45.1 µM (inactive) in test [5] and 22.2 µM (inactive) in test [6].

In the case of `CC(C)=CCC/C(C)=C/CC/C(C)=C/CCC1(C)CCC([C@H](C)C(=O)O)OO1.CC1=C(CC/C(C)=C/CCC2(C)CCC([C@H](C)C(=O)O)OO2)C(C)(C)CCC1` (some centres undefined), the GI50 in test [1], in test [3], in test [4], in test [5], in [6] and in [7] was > 100 µM (inactive) throughout.

For the compound `O=C1N=C2N=C(c3ccc(Cl)cc3)N(c3ccc(Cl)cc3)N2Sc2ccccc21`, the GI50 in test [1] was > 100 µM (inactive); in test [2] it was 40.9 µM (inactive); in test [3], > 100 µM (inactive); in test [4], > 100 µM (inactive); in test [5], > 100 µM (inactive); in test [8], > 100 µM (inactive). Further, the values for the GI50 in test [6] and in test [7] were > 100 µM (inactive) and 67.1 µM (inactive), respectively.

For the compound `CC(=O)Oc1ccc(CO)cc1OC(C)=O`, the GI50 in test [1] is > 100 µM (inactive); in [2], 92.9 µM (inactive); in test [3], > 100 µM (inactive); in test [4] it was 40.3 µM (inactive); in test [5], > 100 µM (inactive); in test [8], > 100 µM (inactive). In addition, the results for the GI50 in test [6], in test [9] and in test [7] were > 100 µM (inactive), 63.2 µM (inactive) and > 100 µM (inactive), respectively.

Regarding `CCC1=CCN(c2cc(C)ccn2)OC1c1ccccc1` (centres undefined), the GI50 in test [1] was 39.2 µM (inactive); in test [2], 22.9 µM (inactive); in [3], 43.9 µM (inactive); in test [4] it was 56.2 µM (inactive); in test [5], 34.4 µM (inactive); in test [8] it was > 100 µM (inactive). For the same compound, the GI50 is 34 µM (inactive) in [6], 25.4 µM (inactive) in test [9] and 43.6 µM (inactive) in test [7].

Consider `CC(N)Cc1ccc(F)cc1` (centres undefined), for which the GI50 in test [1], in test [3], in test [4], in [8], in test [6] and in test [9] was > 100 µM (inactive) in each case. Further, the GI50 in test [7] was > 100 µM (inactive).

As for `CC1(C2CCC3(C)C(C2)C3Sc2ccccc2)OCCO1` (centres undefined), the GI50 is 17.1 µM (inactive) in [2]; 40 µM (inactive) in test [3]; 21.8 µM (inactive) in test [4]; 19.8 µM (inactive) in test [5]; 29 µM (inactive) in test [6]; 19.9 µM (inactive) in [7].

On to `CSc1nc(NC2OC(COC(C)=O)C(OC(C)=O)C(OC(C)=O)C2OC(C)=O)c2c(n1)OCC2=O` (centres undefined), for which the GI50 in test [1], in test [3], in test [4], in [5], in test [8] and in test [6] was > 100 µM (inactive) each time. Moreover, the GI50 in [9] was > 100 µM (inactive).

For the compound `Cc1ccc(C2=Nc3ccccc3NC(=O)C2)cc1`, the GI50 in [1] is > 100 µM (inactive); in test [2], 35.9 µM (inactive); in [3] it was 72.6 µM (inactive); in [4], 91.2 µM (inactive); in [5], > 100 µM (inactive); in [8], > 100 µM (inactive). Also, the GI50 in [6] and in test [7] was > 100 µM (inactive) in each case.

With `CCNC(=O)OCc1c(COC(=O)NCC)c(-c2ccc(Cl)c(Cl)c2)n2c1CCC2`, the GI50 in test [1] is 16.9 µM (inactive); in test [2], 16.1 µM (inactive); in [4], 9.02 µM (inactive); in test [5], 23.3 µM (inactive); in [6], 11.8 µM (inactive); in test [7], 9.48 µM (inactive).

As for `N#CC1(Cc2ccccc2)CCCCN1C(=O)c1ccccc1` (centres undefined), the GI50 in test [1], in test [2], in [3], in [4], in [5] and in test [8] was > 100 µM (inactive) in each case. The GI50 in test [6], in [9] and in test [7] was > 100 µM (inactive) throughout.

In the case of `CC1OC(n2cc(F)c(=O)[nH]c2=O)C=CC1=O` (centres undefined), the GI50 in [1] was 18.4 µM (inactive); in test [3], 18.7 µM (inactive); in [4], 18 µM (inactive); in test [5] it was 19.7 µM (inactive); in test [8], 18.3 µM (inactive); in test [6], 18.1 µM (inactive). For the same compound, the values for the GI50 in test [9] and in test [7] were 53.8 µM (inactive) and 18.6 µM (inactive), respectively.

As to `C=CCCOC(=O)CO[N+](=O)[O-]`, the GI50 in test [1], in test [2], in [4], in test [5], in [6] and in test [7] was > 100 µM (inactive) each time.

As to `NC1=NC(c2ccccc2)CC(c2cc(Cl)ccc2O)=N1` (centres undefined), the GI50 in test [1] was 17.4 µM (inactive); in [2] it was 19.6 µM (inactive); in test [3] it was 19.5 µM (inactive); in [4], 12.7 µM (inactive); in test [5], 14.5 µM (inactive); in test [8], 17.7 µM (inactive). In addition, the GI50 is 13.2 µM (inactive) in test [6] and 13 µM (inactive) in [7].

For `CSC1NC=Nc2c1sc(=S)n2-c1ccccc1` (centres undefined), the GI50 in test [1] is > 100 µM (inactive); in test [2] it was > 100 µM (inactive); in [3], 43.5 µM (inactive); in test [4], > 100 µM (inactive); in test [5] it was > 100 µM (inactive); in test [8], > 100 µM (inactive). The GI50 in [6] and in test [7] was > 100 µM (inactive) in each case.

Regarding `CO/N=C/c1cc(OC)c(OC)c(OC)c1`, the GI50 in [1], in test [2], in [3], in test [4], in test [5] and in [8] was > 100 µM (inactive) throughout. For the same compound, the GI50 in test [6], in [9] and in [7] was > 100 µM (inactive) in each case.

For the compound `CCOC(=O)[C@H](Cc1ccccc1)NC(=O)c1nc[nH]c1[N+](=O)[O-]`, the GI50 in test [4], in test [5], in test [6] and in [7] was > 100 µM (inactive) in each case.

Consider `CCOC(=O)CP(=S)(S)c1ccccc1` (centres undefined), for which the GI50 in [1] was > 100 µM (inactive); in [2], 45.2 µM (inactive); in test [3], > 100 µM (inactive); in test [4] it was > 100 µM (inactive); in test [5], > 100 µM (inactive); in test [6], > 100 µM (inactive). Moreover, the GI50 in test [7] is > 100 µM (inactive).

`C=CC1[C@H]2COC(C)(C)O[C@@H]2CC(=O)C1(C)C` (some centres undefined): the GI50 in test [1], in [2], in [3], in test [4], in [5] and in test [8] was > 100 µM (inactive) throughout. The GI50 in test [6] and in test [7] was > 100 µM (inactive) in each case.

With `CC1(C)CCC[C@@]2(C)C1CC[C@H]1CC(O)C3(C)CCC12C3` (some centres undefined), the GI50 is 18.9 µM (inactive) in test [1]; 17.4 µM (inactive) in test [2]; 17.2 µM (inactive) in test [3]; 17.3 µM (inactive) in test [4]; 21.1 µM (inactive) in test [5]; 17.1 µM (inactive) in test [6]. The GI50 in test [9] was 19.1 µM (inactive).

Consider `CC[C@@]1(O)C(=O)OCc2c1cc1n(c2=O)Cc2cc3cc(OC)ccc3nc2-1`, for which the GI50 is 0.0604 µM (active) in [1], 0.01 µM (active) in test [4], 0.0537 µM (active) in [5] and 0.01 µM (active) in [7].

Regarding `COc1cc([C@@H]2c3cc4c(cc3C[C@H]3COC(=O)[C@@H]32)OCO4)cc(OC)c1OC` [DESOXYPODOPHYLLOTOXIN], the GI50 in [1] is 0.00703 µM (active); in [2], 0.00859 µM (active); in test [3], 0.00875 µM (active); in test [4] it was 0.00698 µM (active); in test [5], 0.00986 µM (active); in [8], 33.6 µM (inactive). The values for the GI50 in test [6] and in [7] were 0.00843 µM (active) and 0.00728 µM (active), respectively.
